Laboratory results as given in patent publication US11492359B2, “Near-infrared nerve-sparing fluorophores” (OREGON HEALTH & SCIENCE UNIVERSITY, priority 2018, dated 2022).

Columns and labels:
[1] = tested on: murine brachial plexus and sciatic nerves; assay: Nerve-specificity screening using direct/topical administration; format: in vivo, mouse; details: 125 μM, imaged 30 minutes after staining
Method: (§1) All reagents were purchased from Sigma Aldrich, Fisher Scientific, TCI, or Ark Pharm. Unless otherwise indicated, all commercially available starting materials were used directly without further purification. Analytical thin layer chromatography (TLC) was performed on Millipore ready-to-use plates with silica gel 60 (F254, 32-63 μm). Flash chromatography was performed on Sorbent Technologies silica gel for column chromatography or on a Biotage Isolera Flash System using SNAP Ultra cartridges. High-resolution mass spectra (HRMS) were measured on a ThermoElectron LTQ-Orbitrap high resolution mass spectrometer with a dedicated Accela HPLC system, or an Agilent 6244 time-of-flight LCMS with diode array detector VL+. LCMS and Purity Characterization Mass-to-charge ratio and purity of the Oxazine compounds were characterized on an Agilent 6244 time-of-flight tandem liquid chromatography mass spectroscopy (LCMS) with diode array detector VL+. Sample (10 μL) was injected into a C18 column (Poroshell 120, 4.6×50 mm, 2.7 micron), and eluted with a solvent system of A (H2O, 0.1% FA) and B (MeCN, 01.% FA) at 0.4 mL/min, from A/B=90/10 to 5/95 over 10 min, maintained at A/B=5/95 for additional 5 min. Ions were detected in positive ion mode by setting the capillary voltage at 4 kV and gas temperature at 350° C. Purity was calculated through area under the curve analysis of the absorbance at 254 nm. UV-Vis Absorption and Fluorescence Spectroscopy. UV-Vis spectra were collected with a Cary 50 UV-Vis spectrophotometer at room temperature, using a 1-cm quartz cuvette. Fluorescence spectra were collected on a Cary Eclipse fluorescence spectrophotometer (Agilent Technologies). All absorbance spectra were reference corrected. Extinction coefficient was calculated from Beer's Law plots of absorbance versus concentration. Fluorescence spectra were corrected for the wavelength dependent response of the R928 photomultiplier tube using a manufacturer generated correction file. Relative quantum yields are reported as the average of multiple measurements using multiple references, including Oxazine 1, Oxazine 170, and Rhodamine 101. Physicochemical Property Calculation. Physicochemical partition coefficients (Log D) values at pH 7.4, number of hydrogen bond donors and acceptors, polar surface area, and the number of rotatable bonds were calculated using Marvin and JChem calculator plugins (ChemAxon, Budapest, Hungary). Nerve-Specificity Screening using Direct/Topical Administration Each compound was screened for its tissue-specificity using a previously published direct/topical administration strategy in murine brachial plexus and sciatic nerves.^1 Each compound from the Oxazine library was formulated in the previously utilized co-solvent formulation (10% DMSO, 5% Kolliphor, 65% serum and 20% phosphate buffered saline) at 125 μM. 100 μL of the formulated Oxazine were incubated on the exposed brachial plexus or sciatic nerve for 5 minutes. The fluorophore containing solution was removed and the area was irrigated with saline 18 times to remove any unbound fluorophore. Co-registered fluorescence and color images were collected of each stained area 30 minutes after Oxazine direct/topical administration using a custom built macroscopic imaging system with 620/60 nm excitation and 700/75 nm bandpass emission filters. Custom written MatLab code was used to analyze the tissue specific fluorescence where regions of interest were selected on the nerve, muscle and adipose tissue using the white light images. These regions of interest were then analyzed on the co-registered matched fluorescence images permitting assessment of the nerve to muscle and nerve to adipose ratios in blinded manner. […]

[2] = UV-Vis absorption and fluorescence spectroscopy of the Oxazine library; format: physicochemical; details: for Extinction coefficient: Beer's Law plots; for Quantum yield: relative, references Oxazine 1, Oxazine 170, Rhodamine 101
Method: as §1

[3] = tested on: murine brachial plexus and sciatic nerves; assay: Nerve-specificity screening using systemic administration; format: in vivo; details: IV; for nerve specificity / nerve contrast (N/M vs control group) following systemic administration: 200 nmol, 4 hours prior to imaging; for toxicity upon systemic administration: mice

SMILES	nerve specificity (N/M contrast vs control group) via direct administration [1]	Max Abs [2]	Max Em [2]	Max Ex [2]	Extinction coefficient [2]	Quantum yield [2]	nerve specificity / nerve contrast (N/M vs control group) following systemic administration [3]	toxicity upon systemic administration [3]
CC/N=c1\ccc2nc3ccc(NCC)cc3oc-2c1 [LGW01-21, (E)-N-(7-(ethylamino)-3H-phenoxazin-3-ylidene)ethanaminium]	positive nerve specificity	617 nm	634 nm	620 nm	28745 M⁻¹ cm⁻¹	30.12%	negative for nerve contrast	
CC/N=c1/cc2oc3cc(N(CC)CC)c(C)cc3nc-2cc1C [LGW01-23, (Z)—N-(7-(diethylamino)-2,8-dimethyl-3H-phenoxazin-3-ylidene)ethanaminium]	positive nerve specificity	645 nm	635 nm	620 nm	62445 M⁻¹ cm⁻¹	0.67%	negative for nerve contrast	
CCC/N=c1/cc2oc3cc(NCCC)c(C)cc3nc-2cc1C [LGW01-64, (Z)—N-(2,8-dimethyl-7-(propylamino)-3H-phenoxazin-3-ylidene)propan-1-aminium]	positive nerve specificity	620 nm	638 nm	620 nm	50166 M⁻¹ cm⁻¹	42.15%	negative for nerve contrast	toxic upon systemic administration
CC/N=c1/cc2oc3c4c5c(cc3nc-2cc1C)CCCN5CCC4 [LGW01-99, (Z)—N-(11-methyl-2,3,6,7-tetrahydro-1H,5H,12H-quinolizino[1,9-bc]phenoxazin-12-ylidene)ethanaminium]		648 nm	667 nm	650 nm	56046 M⁻¹ cm⁻¹	10.14%		toxic upon systemic administration
CC/N=c1/cc2oc3cc(NCC)cc(C)c3nc-2c(C)c1 [LGW02-95, (E)-N-(7-(ethylamino)-1,9-dimethyl-3H-phenoxazin-3-ylidene)ethanaminium]	positive nerve specificity	606 nm	627 nm	605 nm	48653 M⁻¹ cm⁻¹	32.50%	negative for nerve contrast	
CC1=CC(C)(C)Nc2cc3c(cc21)N=c1cc2c(cc1O3)=NC(C)(C)C=C2C [LGW03-01, 2,2,4,8,10,10-hexamethyl-10,11-dihydro-2H-dipyrido[3,2-b:2′,3′-i]phenoxazin-1-ium]	positive nerve specificity	677 nm	695 nm	680 nm	44453 M⁻¹ cm⁻¹	17.27%	negative for nerve contrast	
CC[N+](CC)=c1ccc2nc3ccc(N4CCCC4)cc3oc-2c1 [LGW03-07, N-ethyl-N-(7-(pyrrolidin-1-yl)-3H-phenoxazin-3-ylidene)ethanaminium]	negative nerve specificity	654 nm	672 nm	660 nm	52356 M⁻¹ cm⁻¹	9.28%	positive	
CCN(CC)c1cc2oc3cc(=[N+](CC)CC)ccc-3nc2cc1C [LGW03-23, N-(7-(diethylamino)-8-methyl-3H-phenoxazin-3-ylidene)-N-ethylethanaminium]	positive nerve specificity	664 nm	690 nm	645 nm	23099 M⁻¹ cm⁻¹	1.53%	negative for nerve contrast	
